# Like-named read-outs stand apart in the source and are kept apart here.
# Columns and labels:
# maternal Snrpn-EGFP MEFs = experiment: High content screening / concentration response of Snrpn-EGFP unsilencing; type: cell-based, mouse; details: for activation of S-EGFP: mS-EGFP/p+ MEFs; for EC50: read-out: half-maximal effective concentration (EC50), Snrpn-EGFP unsilencing
# Method: High content screenings of small molecules were performed as described in Huang, et al. Nature 481, 185-189 (2012). HCS comprises a 384-well high-content screen using primary mouse embryonic fibroblasts (MEFs) from m^S-EGFP/p^+, and searched for drug-like molecules that could unsilence the maternal S-EFGP allele. […] To perform the screen, primary MEFs were isolated from E12.5-14.5 embryos of m^S-EGFP/p^+ and cultured for 7 days in Dulbecco's modified Eagle's media supplemented with 10% fetal bovine serum, 100 Units/mL penicillin and 100 μg/mL streptomycin, at 37° C. and 5% CO2. One day before treatment with small molecules, 5,000 cells per well were plated onto 384-well plates. The cells were then treated with compounds (10 μM for 72 hours) from multiple small molecule libraries (FIG. 1f and FIG. 2). In total, 9,157 small molecules were screened in quadruplicate, normalizing values to vehicle-treatment (0.2% DMSO) (Table 1). The unsilencing of Snrpn-EGFP was determined three days after drug treatment. The immunofluorescence-processed fibroblasts were imaged for Hoechst and Alexa Fluor 488 fluorescence using a BD Pathway 855 high content imaging microscope. Antibody-enhanced Snrpn-EGPF fluorescence intensity was determined in drug-treated cells individually and normalized to cells treated with vehicle control. In order to identify potentially active compounds, an arbitrary cutoff of 125% was used where 100% indicates basal fluorescence in the vehicle-treated MEFs. Analysis was performed using Cell Profiler with custom macro and algorithms. Potential active drugs were defined as the increase in drug-mediated EGFP fluorescence consistently observed across quadruplicate wells and minimal or no cytotoxicity measured by Hoechst-stained nuclear structure (and the changes in total number of cells). After initial validation of all potential active drugs (e.g., to determine whether active compounds show inherent fluorescence, the wild-type fibroblasts were also treated), only effective hit compounds further validated in dose-response tests to determine relative efficacy (Emax) and potency (EC50). The dose-response results were analyzed by using Graphpad Prism (Graphpad Software). The calculated EC50 values (potencies) and estimated Emax (efficacy, Y-value top plateau) enabled comparative analyses of the relative potency and efficacy of the identified compounds.
# Three days after drug treatment, the cells were fixed at 4% paraformaldehyde at room temperature for 10 min, followed by rinsing with 1× PBS. The cells were permeabilized with 0.5% Triton X-100 in 1× PBS at room temperature for 10 min, followed by blocking with 5% normal goat serum in 0.1% Triton X-100 in 1× PBS at room temperature for 30 minutes. Primary rabbit anti-GFP antibody (1:1000, Novus Biologicals cat. no. NB100-1770) was incubated at 4° C. overnight. The next day, the cells were rinsed with 1× PBS and incubated with goat anti-rabbit Alexa Fluor 488 (Invitrogen cat. no. A-11008) and Hoechst at room temperature. One hour after incubation, the cells were rinsed with 1× PBS and imaged for Hoechst and Alexa Fluor 488 fluorescence using a BD Pathway 855 high content imaging microscope.
# It is not feasible to design a screen for noncoding RNA. Alternatively, SNRPN/Snprn is paternally expressed but maternally silenced in all human and mouse tissues. The allele-specific expression of human SNRPN is regulated by the PWS-IC, which also controls the expression of host transcripts for SnoRNAs, including the SNORD116 cluster between SNRPN and UBE3A. see Le Meur, E. et al., Dev. Biol. 286, 587-600 (2005). Thus, the Snrpn-EGFP fusion protein (hereafter S-EGFP) was used as a marker for high content screening (HCS). It was determined that small molecules that can unsilence S-EGFP would also be effective in reactivating the host transcript of SNORD116. […]
# human PWS fibroblasts = experiment: RT-PCR of 15q11-q13 genes in human PWS fibroblasts; type: cell-based; details: for SNORD116 and its putative host transcript (116HG): 4 μM, 72 hours
# Method: For testing long lasting drug effects, the 6 week-old m^S-EGFP/p^+ mice were treated daily by i.p. injection for seven consecutive days.
# For reverse-transcription PCR (RT-PCR) and quantitative real time RT-PCR (qRT-PCR), first total RNA was extracted from the fibroblasts and/or collected tissues (liver and brain) using Direct-zol RNA Miniprep kit (Zymo Research cat. no. R2070). 2 μg of total RNA was directly used for single strand cDNA synthesis with Superscript III reverse transcriptase (Invitrogen cat. no. 18080-093) according to the manufacturer's protocols. The conditions for RT-PCR were 95° C./5 min, 35-40 cycles of 95° C./30 sec, 56-60° C./60 sec, 72° C./60 sec. Quantification of target gene expression was performed in a LightCycler480 instrument (Roche) using SsoAdvanced Universal SYBR green Supermix (Biorad cat. no. 172-5271) according to the manufacturer's instructions. See Table 4 for primer sequences and conditions used for experiments for RT-PCR, qRT-PCR, bisulfite genomic sequencing, ChIP-qPCR, and chromatin accessibility assay.
# FIG. 4a represents a schematic of genomic organization at the human chromosome 15q11-q13 region imprinting center. Because imprinting of SNPRN is known to be ubiquitous, the G9a-inhibitor effect on its activation is expected to be representative of all tissues and cell types.
# H3K9me2 = details: cited from earlier work
"EC50 (maternal Snrpn-EGFP MEFs; maternal Snrpn-EGFP MEFs, 72 hours) [µM]",SMILES,activation of S-EGFP (maternal Snrpn-EGFP MEFs),SNORD116 and its putative host transcript (116HG) (human PWS fibroblasts),activation of SNRPN and SNORD116 transcripts (human PWS fibroblasts; 1-4 μM),"reduction of the levels of H3K9me2 (H3K9me2; 250 nM, variety of cell lines)","EC50 (maternal Snrpn-EGFP MEFs; Mus musculus, 72 h) [µM]",potency for H3K9me2 mark (H3K9me2; several cell lines)
1.6,COc1cc2c(NC3CCN(C(C)C)CC3)nc(C3CCCCC3)nc2cc1OCCCN1CCCC1 [UNC0638],active,effective,effectively activated,60-80%,–,–
–,COc1cc2c(NC3CCN(C(C)C)CC3)nc(N3CCC(F)(F)CC3)nc2cc1OCCCN1CCCC1 [UNC0642],active,effective,–,–,2.7,high potency

# From US11278550B2, “Compositions and methods for the treatment of Prader-Willi syndrome” (Duke University, priority 2016, dated 2022)
